According to patent publication US10597399B2, “Substituted triazolopiperazine PARP inhibitor, preparation method therefor and use thereof” (Shanghai Institute of Materia Medica, Chinese Academy of …, priority 2015, dated 2020):

Legend:
[1] = system: Capan-1/AZD2281 drug resistant cell; experiment: cells; conditions: Homo sapiens
[2] = system: Capan-1 cells (BRCA2 gene defect); experiment: Inhibition of proliferation of Capan-1 cells (CCK-8 and SRB method); conditions: Homo sapiens, CAPAN-1, read-out: Cellular IC50 (nM) Capan-1 (BRCA2gene defect)
[3] = background statement; cited from earlier work
Capan-1 parental cell = experiment: Anti-proliferative effect on Capan-1 parental cell; conditions: Homo sapiens
HCC-1937 (breast cancer) = experiment: Proliferation of different tumor cells: HCC-1937; conditions: for IC50: Homo sapiens, HCC1937
SW-620 (colon cancer) = experiment: Proliferation of different tumor cells: SW-620; conditions: for IC50: Homo sapiens
[4] = system: Capan-1 (pancreatic cancer); experiment: Proliferation of different tumor cells: Capan-1; conditions: Homo sapiens
[5] = system: MDA-MB-436 cells (BRCA1 gene defect); experiment: Inhibition of proliferation of MDA-MB-436 cells (CCK-8 and SRB method); conditions: Homo sapiens, MDA-MB-436, read-out: Cellular IC50 (nM) MDA-MB-436 (BRCA1gene defect)
HCT-15 (colon cancer) = experiment: Proliferation of different tumor cells: HCT-15; conditions: for IC50: Homo sapiens
[6] = system: UWB1.289 (ovarian cancer); experiment: Proliferation of different tumor cells: UWB1.289; conditions: for IC50: UWB1289
PARP-1 = PARP-1 (Homo sapiens (Human), UniProt P09874); conditions: PARP-1 enzyme
PARP-1, sequence (P09874 whole entry): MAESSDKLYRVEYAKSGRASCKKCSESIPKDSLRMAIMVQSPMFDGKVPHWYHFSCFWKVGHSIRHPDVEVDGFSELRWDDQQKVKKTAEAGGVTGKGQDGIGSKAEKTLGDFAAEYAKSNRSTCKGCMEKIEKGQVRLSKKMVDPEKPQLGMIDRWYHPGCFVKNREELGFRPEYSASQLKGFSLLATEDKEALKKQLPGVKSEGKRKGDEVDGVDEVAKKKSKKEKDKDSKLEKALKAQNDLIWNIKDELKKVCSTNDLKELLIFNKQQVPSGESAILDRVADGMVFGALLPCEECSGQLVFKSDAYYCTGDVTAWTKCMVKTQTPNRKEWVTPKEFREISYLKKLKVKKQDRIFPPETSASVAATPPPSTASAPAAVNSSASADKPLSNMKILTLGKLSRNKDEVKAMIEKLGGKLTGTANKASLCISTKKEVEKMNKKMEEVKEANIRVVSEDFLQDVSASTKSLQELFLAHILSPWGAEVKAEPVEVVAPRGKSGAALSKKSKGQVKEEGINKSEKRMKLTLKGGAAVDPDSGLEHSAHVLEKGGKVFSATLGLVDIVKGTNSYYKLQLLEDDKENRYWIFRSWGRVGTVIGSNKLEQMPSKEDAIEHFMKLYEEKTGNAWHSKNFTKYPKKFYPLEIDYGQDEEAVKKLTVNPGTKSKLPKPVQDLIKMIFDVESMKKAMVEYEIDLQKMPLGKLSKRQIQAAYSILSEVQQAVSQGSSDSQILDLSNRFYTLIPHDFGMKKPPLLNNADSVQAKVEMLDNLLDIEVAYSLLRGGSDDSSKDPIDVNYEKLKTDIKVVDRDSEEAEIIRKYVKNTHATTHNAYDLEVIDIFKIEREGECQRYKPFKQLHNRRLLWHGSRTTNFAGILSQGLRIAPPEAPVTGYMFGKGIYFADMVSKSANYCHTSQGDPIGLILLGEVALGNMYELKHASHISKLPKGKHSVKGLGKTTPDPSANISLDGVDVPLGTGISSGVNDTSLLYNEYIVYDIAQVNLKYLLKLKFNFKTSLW

| SMILES | IC50 [5] [nM] | IC50 [2] [nM] | further results |
| --- | --- | --- | --- |
| O=C(c1cc(Cc2n[nH]c(=O)c3ccccc23)ccc1F)N1CCN(C(=O)C2CC2)CC1 [AZD2281, olaparib, reference compound] | ~200 | ~500 | IC50 [1]: 41100 ± 1590 nM; bioavailability [3]: < 15%; in vivo action time and half-life time [3]: < 1 h; IC50 (Capan-1 parental cell): 2899 ± 17 nM; IC50 (HCC-1937 (breast cancer)): 7390 nM; IC50 (SW-620 (colon cancer)): 5840 nM; IC50 [4]: 653 nM; IC50 (HCT-15 (colon cancer)): > 10000 nM; IC50 [6]: 177 nM |
| CC1CN(C(=O)c2cc(Cc3n[nH]c(=O)c4ccccc34)ccc2F)Cc2nnc(C3CCNCC3)n21 (stereo not drawn) [Compound S3] | < 200 | < 200 | – |
| CC1CN(C(=O)c2cc(Cc3n[nH]c(=O)c4ccccc34)ccc2F)Cc2nnc(-c3ncc[nH]3)n21 (stereo not drawn) [Compound S9] | < 5 | < 20 | – |
| CC1CN(C(=O)c2cc(Cc3n[nH]c(=O)c4ccccc34)ccc2F)Cc2nnc(-c3ccccn3)n21 (stereo not drawn) [Compound S13] | < 5 | < 5 | IC50 [1]: < 0.256 nM; IC50 (Capan-1 parental cell): < 0.256 nM; Ratio IC50 AZD/IC50 S13 (HCC-1937 (breast cancer); HCC-1937): 338; IC50 (HCC-1937 (breast cancer)): 21.9 nM; Ratio IC50 AZD/IC50 S13 (SW-620 (colon cancer)): 130; IC50 (SW-620 (colon cancer)): 45 nM; IC50 [4]: 1.04 nM; Ratio IC50 AZD/IC50 S13 (HCT-15 (colon cancer)): 70; IC50 (HCT-15 (colon cancer)): 143 nM; Ratio IC50 AZD/IC50 S13 ([6]; UWB1.289): 59; IC50 [6]: 3 nM |
| CC1CN(C(=O)c2cc(Cc3n[nH]c(=O)c4ccccc34)ccc2F)Cc2nnc(-c3cnccn3)n21 (stereo not drawn) [Compound S20] | < 20 | < 20 | – |
| CC1CN(C(=O)c2cc(Cc3n[nH]c(=O)c4ccccc34)ccc2F)Cc2nnc(-c3ncccc3F)n21 (stereo not drawn) [Compound S33] | < 20 | < 20 | – |
| C[C@@H]1CN(C(=O)c2cc(Cc3n[nH]c(=O)c4ccccc34)ccc2F)Cc2nnc(-c3ccccn3)n21 [S13-(+)] | – | – | activity of (+)-S13 relative to (−)-S13 (PARP-1): twice |

Second part, led by results:

| IC50 [5] [nM] | SMILES | IC50 [2] [nM] | further results |
| --- | --- | --- | --- |
| < 5 | CC1CN(C(=O)c2cc(Cc3n[nH]c(=O)c4ccccc34)ccc2F)Cc2nnc(-c3cccs3)n21 (stereo not drawn) [Compound S7] | < 5 | – |
| < 20 | CC1CN(C(=O)c2cc(Cc3n[nH]c(=O)c4ccccc34)ccc2F)Cc2nnc(-c3c[nH]cn3)n21 (stereo not drawn) [Compound S8] | < 20 | – |
| < 20 | CC1CN(C(=O)c2cc(Cc3n[nH]c(=O)c4ccccc34)ccc2F)Cc2nnc(-c3nccn3C)n21 (stereo not drawn) [Compound S10] | < 20 | – |
| < 20 | CC1CN(C(=O)c2cc(Cc3n[nH]c(=O)c4ccccc34)ccc2F)Cc2nnc(-c3cncs3)n21 (stereo not drawn) [Compound S11] | < 20 | – |
| < 20 | CC1CN(C(=O)c2cc(Cc3n[nH]c(=O)c4ccccc34)ccc2F)Cc2nnc(-c3ccsc3)n21 (stereo not drawn) [Compound S12] | < 20 | – |
| < 20 | CC1CN(C(=O)c2cc(Cc3n[nH]c(=O)c4ccccc34)ccc2F)Cc2nnc(-c3cnn(C)c3)n21 (stereo not drawn) [Compound S14] | < 20 | – |
| < 5 | CC1CN(C(=O)c2cc(Cc3n[nH]c(=O)c4ccccc34)ccc2F)Cc2nnc(-c3nccs3)n21 (stereo not drawn) [Compound S15] | < 5 | – |
| < 5 | CC1CN(C(=O)c2cc(Cc3n[nH]c(=O)c4ccccc34)ccc2F)Cc2nnc(-c3ccco3)n21 (stereo not drawn) [Compound S16] | < 5 | – |
| < 5 | CC1CN(C(=O)c2cc(Cc3n[nH]c(=O)c4ccccc34)ccc2F)Cc2nnc(-c3ccc(CO)o3)n21 (stereo not drawn) [Compound S18] | < 5 | – |
